Measured values taken from ChEMBL document CHEMBL1201862, “PubChem BioAssay data set” (2004).
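In this assay, cells in 96-well plates receive the compound at five concentrations for 48 hours. Endpoints are linearly interpolated between the surrounding concentrations. Abbreviation: GI50, concentration required for 50% inhibition of growth.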 Activity calls are given as the source filed them. Rule as the data show it: active = GI50 up to about 1.1 µM and inactive = higher.

Tests used:
Assay in all cases: NCI anticancer screen, dose series, 48 h
786-0 = tested on: 786-0
A549 = tested on: A549
HCT-15 = tested on: HCT-15
HL-60 = tested on: HL-60
HOP-62 = tested on: HOP-62
HOP-92 = tested on: HOP-92
IGROV-1 = tested on: IGROV-1
MDA-MB-435 = tested on: MDA-MB-435
MOLT-4 = tested on: MOLT-4
Malme-3M = tested on: Malme-3M
NCI/ADR-RES = tested on: NCI/ADR-RES
OVCAR-3 = tested on: OVCAR-3
OVCAR-5 = tested on: OVCAR-5
RPMI-8226 = tested on: RPMI-8226
RXF 393 = tested on: RXF 393
SF-539 = tested on: SF-539
SR = tested on: SR
SW-620 = tested on: SW-620
UO-31 = tested on: UO-31

SMILES	GI50 (786-0)	GI50 (A549)	GI50 (HCT-15) [µM]	GI50 (HL-60)	GI50 (HOP-62)	GI50 (HOP-92)	GI50 (IGROV-1)	GI50 (MDA-MB-435)	GI50 (MOLT-4)	GI50 (Malme-3M)	GI50 (NCI/ADR-RES)	GI50 (OVCAR-3)	GI50 (OVCAR-5)	GI50 (RPMI-8226)	GI50 (RXF 393)	GI50 (SF-539)	GI50 (SR)	GI50 (SW-620)	GI50 (UO-31)
CCOC(=O)C(NC(=O)CC)(Nc1ccc(S(=O)(=O)Nc2onc(C)c2C)cc1)C(F)(F)F (configuration not stated)	> 100 µM (inactive)	> 100 µM (inactive)	> 100	> 100 µM (inactive)	> 100 µM (inactive)	> 100 µM (inactive)	> 100 µM (inactive)	> 100 µM (inactive)	> 100 µM (inactive)	> 100 µM (inactive)	> 100 µM (inactive)	> 100 µM (inactive)	> 100 µM (inactive)	> 100 µM (inactive)	> 100 µM (inactive)	> 100 µM (inactive)	> 100 µM (inactive)	> 100 µM (inactive)	> 100 µM (inactive)
CN(C)c1ccc(C=c2c3ccccc3n3c2c2c([n+]3C)CCCC2)cc1	0.261 µM (active)	0.0728 µM (active)	1.87	0.075 µM (active)	0.165 µM (active)	0.046 µM (active)	0.138 µM (active)	0.109 µM (active)	0.116 µM (active)	0.17 µM (active)	3.17 µM (inactive)	0.152 µM (active)	0.463 µM (active)	0.0352 µM (active)	0.106 µM (active)	0.165 µM (active)	0.0233 µM (active)	0.118 µM (active)	1.12 µM (inactive)
CCOc1cnc(C(O)(c2ccccc2)c2ccccc2)o1	> 100 µM (inactive)	> 100 µM (inactive)	77.1	> 100 µM (inactive)	> 100 µM (inactive)	58.9 µM (inactive)	> 100 µM (inactive)	> 100 µM (inactive)	> 100 µM (inactive)	> 100 µM (inactive)	> 100 µM (inactive)	> 100 µM (inactive)	> 100 µM (inactive)	> 100 µM (inactive)	> 100 µM (inactive)	> 100 µM (inactive)	> 100 µM (inactive)	> 100 µM (inactive)	> 100 µM (inactive)
CC(C)=CCC[C@@H](C)C1=C(O)C(=O)C(C)=C(Nc2ccccc2Cl)C1=O	12.9 µM (inactive)	19 µM (inactive)	7.26	1.22 µM (inactive)	11.6 µM (inactive)	27.8 µM (inactive)	5.81 µM (inactive)	23.9 µM (inactive)	5 µM (inactive)	11.3 µM (inactive)	1.82 µM (inactive)	10.8 µM (inactive)	45.7 µM (inactive)	25.9 µM (inactive)	22.3 µM (inactive)	9.31 µM (inactive)	11.5 µM (inactive)	27 µM (inactive)	12.4 µM (inactive)
Nc1nc(S)nc2snnc12	> 100 µM (inactive)	> 100 µM (inactive)	> 100	> 100 µM (inactive)	> 100 µM (inactive)	> 100 µM (inactive)	> 100 µM (inactive)	> 100 µM (inactive)	> 100 µM (inactive)	> 100 µM (inactive)	> 100 µM (inactive)	> 100 µM (inactive)	> 100 µM (inactive)	> 100 µM (inactive)	> 100 µM (inactive)	> 100 µM (inactive)	> 100 µM (inactive)	> 100 µM (inactive)	> 100 µM (inactive)
CC(C)CCC/C(CBr)=C(\Cl)CCl	1.85 µM (inactive)	15.7 µM (inactive)	2.8	0.103 µM (active)	8.02 µM (inactive)	2.14 µM (inactive)	1.6 µM (inactive)	2.36 µM (inactive)	0.653 µM (active)	2.59 µM (inactive)	3.27 µM (inactive)	2.53 µM (inactive)	15.1 µM (inactive)	0.948 µM (active)	1.57 µM (inactive)	10.4 µM (inactive)	0.746 µM (active)	1.5 µM (inactive)	3.27 µM (inactive)
CC(C)(C)/N=c1/n(C(C)(C)C)oc(=O)n1-c1ccccc1	> 50 µM (inactive)	> 50 µM (inactive)	> 50	41.1 µM (inactive)	> 50 µM (inactive)	> 50 µM (inactive)	> 50 µM (inactive)	> 50 µM (inactive)	> 50 µM (inactive)	> 50 µM (inactive)	> 50 µM (inactive)	> 50 µM (inactive)	> 50 µM (inactive)	> 50 µM (inactive)	> 50 µM (inactive)	> 50 µM (inactive)	> 50 µM (inactive)	> 50 µM (inactive)	> 50 µM (inactive)
O=C(c1ccc(Cl)cc1Cl)N(Cc1cccnc1)C(=S)N(Cc1cccnc1)C(=O)c1ccc(Cl)cc1Cl	2.12 µM (inactive)	19 µM (inactive)	3.12	3.55 µM (inactive)	2.37 µM (inactive)	3.83 µM (inactive)		17.7 µM (inactive)	4.06 µM (inactive)	16.4 µM (inactive)	15.5 µM (inactive)	2.67 µM (inactive)	10.7 µM (inactive)	0.678 µM (active)	6.43 µM (inactive)	2.22 µM (inactive)	3.4 µM (inactive)	3.68 µM (inactive)	4.26 µM (inactive)
COC(=O)C1=C(C)NC(C)=C([N+](=O)[O-])C1c1cccc(N=O)c1 (configuration not stated)	14.2 µM (inactive)	18.9 µM (inactive)	14.2	> 100 µM (inactive)	19.2 µM (inactive)	2.83 µM (inactive)	16 µM (inactive)	12.7 µM (inactive)	3.18 µM (inactive)	12.5 µM (inactive)	21 µM (inactive)	15 µM (inactive)	16.9 µM (inactive)	4.29 µM (inactive)	13.8 µM (inactive)	16.8 µM (inactive)	3.36 µM (inactive)	3.58 µM (inactive)	12.1 µM (inactive)
O=C(CCc1cccc(O)c1)NCCc1cccc(OCc2ccccc2)c1	25.4 µM (inactive)	28.1 µM (inactive)	19.9	28.4 µM (inactive)	15.3 µM (inactive)	14.9 µM (inactive)	8.93 µM (inactive)	14.9 µM (inactive)	11 µM (inactive)	17.6 µM (inactive)	18.3 µM (inactive)	6.55 µM (inactive)	24.7 µM (inactive)	16.2 µM (inactive)	19.7 µM (inactive)	16.8 µM (inactive)	25 µM (inactive)	21.3 µM (inactive)	8.93 µM (inactive)
CN(C)/C=N/c1ccc2c3c(cccc13)-c1ccccc1-2	12.6 µM (inactive)	11.5 µM (inactive)	11.8	5.58 µM (inactive)	16 µM (inactive)	12.4 µM (inactive)	15.5 µM (inactive)	15.1 µM (inactive)	10.1 µM (inactive)	18.5 µM (inactive)	14.9 µM (inactive)	14.9 µM (inactive)	11.1 µM (inactive)	10.4 µM (inactive)	7.83 µM (inactive)	12.1 µM (inactive)	10.3 µM (inactive)		5.22 µM (inactive)
CC(C)=CCNc1ncnc2c1ncn2CCC#N	> 100 µM (inactive)	> 100 µM (inactive)	> 100	> 100 µM (inactive)	> 100 µM (inactive)	> 100 µM (inactive)	> 100 µM (inactive)	> 100 µM (inactive)	> 100 µM (inactive)	> 100 µM (inactive)	> 100 µM (inactive)	> 100 µM (inactive)	> 100 µM (inactive)	> 100 µM (inactive)	2.21 µM (inactive)	> 100 µM (inactive)	> 100 µM (inactive)	> 100 µM (inactive)	> 100 µM (inactive)
COc1cc(/C=C2\C(=O)N(c3cc(Cl)ccc3Cl)C(c3ccccc3)S2(=O)=O)cc(OC)c1OC (configuration not stated)	> 100 µM (inactive)	> 100 µM (inactive)	39.4	19.2 µM (inactive)	> 100 µM (inactive)	45.1 µM (inactive)	28.3 µM (inactive)	27.7 µM (inactive)	25.1 µM (inactive)	42.9 µM (inactive)	34.1 µM (inactive)	34.8 µM (inactive)	38.5 µM (inactive)	45.4 µM (inactive)	> 100 µM (inactive)	90.6 µM (inactive)	31.6 µM (inactive)	33.7 µM (inactive)	46.8 µM (inactive)
Cc1cccc(C)c1NC(=O)C(=O)CC(=O)/C=C/c1ccccc1	> 100 µM (inactive)	> 100 µM (inactive)	> 100	> 100 µM (inactive)	> 100 µM (inactive)	> 100 µM (inactive)	> 100 µM (inactive)	> 100 µM (inactive)	> 100 µM (inactive)	> 100 µM (inactive)	> 100 µM (inactive)	> 100 µM (inactive)	> 100 µM (inactive)	> 100 µM (inactive)	> 100 µM (inactive)	> 100 µM (inactive)	> 10 µM (inactive)	> 100 µM (inactive)	> 100 µM (inactive)
COc1ccc(C(C)NNC(=O)c2cc[n+]([BH2-]C#N)cc2)c(OC)c1 (configuration not stated)	> 100 µM (inactive)	> 100 µM (inactive)	> 100	> 100 µM (inactive)		> 100 µM (inactive)	> 100 µM (inactive)	> 100 µM (inactive)	> 100 µM (inactive)	> 100 µM (inactive)	> 100 µM (inactive)	> 100 µM (inactive)	> 100 µM (inactive)	> 100 µM (inactive)	> 100 µM (inactive)	> 100 µM (inactive)	> 100 µM (inactive)	> 100 µM (inactive)	> 100 µM (inactive)
